Consider 22 compounds from patent US9187441B2, “p53-Mdm2 antagonists” (University of Pittsburgh—Of the Commonwealth System of …, priority 2010, dated 2015).

For data set [1], the target named is T1, Mdm2 (Homo sapiens (Human), UniProt Q00987). Briefly: Fluorescence polarization (FP) competition binding assay with Mdm2. In general terms: Fluorescence polarisation rises when a labelled molecule tumbles more slowly, as on binding a larger partner.
Protocol: Fluorescence polarization (FP) assay was employed to measure the binding affinities of small molecules with Mdm2.
Protocol for Fluorescence Polarization (FP) Assay:
Fluorescent polarization experiments were performed as follows. […] The fluorescence intensities parallel (Intparallel) and perpendicular (Intperpedicular) to the plane of excitation were measured in parallel perpendicular black 384-well NBS assay plates (Corning) at room temperature (˜20° C.). […] All fluorescence polarization values were expressed in millipolarization units (mP). […] Competition binding assays were performed using the 10 nM fluorescent P4 peptide and 100 nM Mdm2. Binding constant and inhibition curves were fitted using the SigmaPlot (SPSS Science Software).
Data set [2] addresses T1, Mdm2. Briefly: NMR (AIDA) ligand binding to Mdm2. The settings on record: Table 8, Formula II compounds, measured by NMR (AIDA). How it is done: All NMR spectra were acquired at 298 K on a Bruker DRX 600 MHz spectrometer equipped with a cryoprobe. Typically, NMR samples contained 0.1-0.2 mM protein in 50 mM KH2PO4 and 50 mM Na2HPO4, pH 7.4, containing 150 mM NaCl and 5 mM β-Mercaptoethanol. Water suppression was carried out using the WATERGATE sequence. NMR data were processed using the Bruker program Xwin-NMR version 3.5. NMR ligand binding experiments were carried out in an analogous way to those previously described. See D'Silva L., et. al., J. Am. Chem. Soc. 2005, 127, 13220-13226 and Popowicz G. M., et. al., Cell Cycle. 2007, 6, 2386-2392. The maximum concentration of DMSO at the end of titration experiments was less than 1%. The pH was maintained constant during the entire titration. The 1H-15N-HSQC spectra were recorded using fast HSQC pulse sequence as described by Mori et. al., J. Magn. Reson. B 1995, 108, 94-98.
The binding constants (Ki values), of representative Formula II compounds was determined using fluorescence polarization or NMR spectroscopy and are illustrated in Table 8.

Data set [3] in a line: Water (aqueous) solubility. It counts as physicochemical.
[4] abbreviates: Table 8, Formula II compounds, measured by FP.
The mark [5] stands for this setting: Table 1, compounds 8 (C-2 ethyl esters), FP assay, n.i. = no interaction.
Where [6] appears, read: read-out: Ki (inhibition constant), Table 1, compounds 8 (C-2 ethyl esters), FP assay, n.i. = no interaction.

Each structure is given as a SMILES string. Converted amounts (≈) assume the structure as drawn. A value given as a limit tells only on which side of the number the result lay.

T1 sequence (Q00987 whole entry): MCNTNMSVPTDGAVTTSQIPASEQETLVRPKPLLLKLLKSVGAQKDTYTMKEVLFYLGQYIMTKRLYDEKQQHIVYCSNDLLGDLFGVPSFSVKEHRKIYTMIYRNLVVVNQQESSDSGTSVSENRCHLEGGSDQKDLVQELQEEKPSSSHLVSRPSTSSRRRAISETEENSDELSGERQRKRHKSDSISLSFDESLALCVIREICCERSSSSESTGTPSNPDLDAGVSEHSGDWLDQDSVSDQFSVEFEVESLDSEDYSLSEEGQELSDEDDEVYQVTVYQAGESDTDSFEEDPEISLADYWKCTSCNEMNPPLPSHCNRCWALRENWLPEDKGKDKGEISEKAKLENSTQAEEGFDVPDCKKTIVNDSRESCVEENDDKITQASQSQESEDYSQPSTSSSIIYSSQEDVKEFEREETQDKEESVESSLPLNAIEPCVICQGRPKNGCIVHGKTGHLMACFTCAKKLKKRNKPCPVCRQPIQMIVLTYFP

With `CCOC(=O)c1[nH]c2cc(Cl)ccc2c1C(NC(CC(C)C)C(=O)NCCCN1CCOCC1)C(=O)NCc1ccccc1` (stereo in doubt) [KK261, Ethyl 3-(2-(benzylamino)-1-(((S)-4-methyl-1-((3-morpholinopropyl)amino)-1-oxopentan-2-yl)amino)-2-oxoethyl)-6-chloro-1H-indole-2-carboxylate], the affinity at Mdm2 [1] (setting [4]) corresponds to a Ki of 11 µM.
With `CCOC(=O)c1[nH]c2cc(Cl)ccc2c1C(C(=O)NC(C)(C)C)N(C=O)Cc1ccc(Oc2ccccc2)cc1` (stereo not shown) [Compound 8t, Ethyl 3-(2-(tert-butylamino)-2-oxo-1-(N-(4-phenoxybenzyl)formamido)ethyl)-6-chloro-1H-indole-2-carboxylate], on Mdm2 [1] (setting [5]), the “Ki (inhibition constant)” value was “n.i”.
With `CCOC(=O)c1[nH]c2cc(Cl)ccc2c1C(N[C@@H](CC(C)C)C(=O)NCCN1CCOCC1)C(=O)NCc1ccccc1` (stereo partly drawn) [KK242, Ethyl 3-(2-(benzylamino)-1-(((S)-4-methyl-1-((2-morpholinoethyl)amino)-1-oxopentan-2-yl)amino)-2-oxoethyl)-6-chloro-1H-indole-2-carboxylate], the Ki – broadly, a measure of affinity in units of concentration, obtained from inhibition or displacement – at Mdm2 [1] (setting [4]) is 10 µM.
In the case of `CC(C)(C)NC(=O)C(c1c(C(=O)O)[nH]c2cc(Cl)ccc12)N(C=O)Cc1ccc(-c2ccccc2)cc1` (stereo not shown) [Compound 9s, 3-(1-(N-(biphenyl-4-ylmethyl)formamido)-2-(tert-butylamino)-2-oxoethyl)-6-chloro-1H-indole-2-carboxylic acid], the Ki at Mdm2 [1] (read-out: Ki (inhibition constant), Table 2, compounds 9 (free C-2 carboxylic acids), FP assay) is 2.5 µM.
On to `CC(C)CC(NC(C(=O)NCc1ccccc1)c1c(C(=O)O)[nH]c2cc(Cl)ccc12)C(=O)NCCCN1CCOCC1` (stereo not shown) [KK279, 3-(2-(benzylamino)-1-((4-methyl-1-((3-morpholinopropyl)amino)-1-oxopentan-2-yl)amino)-2-oxoethyl)-6-chloro-1H-indole-2-carboxylic acid], for which the Ki at Mdm2 [1] (setting [4]) stood at 7 µM.
For `CC(C)(C)NC(=O)C(c1c(C(=O)O)[nH]c2cc(Cl)ccc12)N(C=O)Cc1cccc(F)c1` (stereo not shown) [Compound 7C, 3-(2-(tert-butylamino)-1-(N-(3-fluorobenzyl)formamido)-2-oxoethyl)-6-chloro-1H-indole-2-carboxylic acid], the Ki on Mdm2 [1] came out at 0.81 µM.
On to `CCOC(=O)c1[nH]c2cc(Cl)ccc2c1C(C(=O)NCc1ccccc1)N(CC(C)C)C(C)=O` (stereo not shown) [Compound 8c, Ethyl 3-(2-(benzylamino)-1-(N-isobutylacetamido)-2-oxoethyl)-6-chloro-1H-indole-2-carboxylate], for which the Ki on Mdm2 [1] (setting [6]) was determined as 4 µM.
On the same count and under the same terms, in the case of `CCOC(=O)c1[nH]c2cc(Cl)ccc2c1C(C(=O)NC1CCCCC1)N(C=O)Cc1ccc(Cl)cc1` (stereo not shown) [Compound 8j, Ethyl 6-chloro-3-(1-(N-(4-chlorobenzyl)formamido)-2-(cyclohexylamino)-2-oxoethyl)-1H-indole-2-carboxylate] it was 50 µM.
With `CCOC(=O)c1[nH]c2cc(Cl)ccc2c1C(C(=O)NC(C)(C)C)N(C=O)Cc1ccc(-c2ccccc2)cc1` (stereo not shown) [Compound 8s, Ethyl 3-(1-(N-(biphenyl-4-ylmethyl)formamido)-2-(tert-butylamino)-2-oxoethyl)-6-chloro-1H-indole-2-carboxylate], the “Ki (inhibition constant)” value at Mdm2 [1] (setting [5]) is “n.i”.
In the case of `CCOC(=O)c1[nH]c2cc(Cl)ccc2c1C(C(=O)NCc1ccccc1)N(Cc1ccccc1)C(C)=O` (stereo not shown) [Compound 8d, Ethyl 3-(1-(N-benzylacetamido)-2-(benzylamino)-2-oxoethyl)-6-chloro-1H-indole-2-carboxylate], on Mdm2 [1] (read-out: Ki (inhibition constant)), the Ki was 6 µM.
As to `CC(C)CC(NC(C(=O)NCc1ccccc1)c1c(C(=O)O)[nH]c2cc(Cl)ccc12)C(=O)NCCN1CCOCC1` (stereo not shown) [KK273, 3-(2-(benzylamino)-1-(4-methyl-1-(2-morpholinoethylamino)-1-oxopentan-2-ylamino)-2-oxoethyl)-6-chloro-1H-indole-2-carboxylic acid], on Mdm2 [2], affinity was put at a Ki of 0.4 µM.
With `CC(C)CC(NC(C(=O)NCc1ccccc1)c1c(C(=O)O)[nH]c2cc(Cl)ccc12)C(=O)NCCO` (stereo not shown) [KK278, 3-(2-(benzylamino)-1-((1-((2-hydroxyethyl)amino)-4-methyl-1-oxopentan-2-yl)amino)-2-oxoethyl)-6-chloro-1H-indole-2-carboxylic acid], on Mdm2 [1] (setting [4]), the Ki was 9 µM.
The same measure, in the same setting: the same measure for `CCOC(=O)c1[nH]c2cc(Cl)ccc2c1C(N[C@H](C(=O)OC)C(C)C)C(=O)NCc1ccccc1` (stereo partly drawn) [KK228, Ethyl 3-(2-(benzylamino)-1-(((S)-1-methoxy-3-methyl-1-oxobutan-2-yl)amino)-2-oxoethyl)-6-chloro-1H-indole-2-carboxylate]: below 1 µM.
As to `COc1ccc(C2=N[C@@H](c3ccc(Cl)cc3)[C@@H](c3ccc(Cl)cc3)N2C(=O)N2CCNC(=O)C2)c(OC(C)C)c1` [Nutlin-3a, reference compound], the aqueous solubility – broadly, the dissolved amount per volume that the medium holds – in data set [3] was 100 µg/mL (≈ 172 µM).
Take `CCOC(=O)c1[nH]c2cc(Cl)ccc2c1C(C(=O)NC1CCCCC1)N(C=O)Cc1ccc(F)cc1` (stereo not shown) [Compound 8k, Ethyl 6-chloro-3-(2-(cyclohexylamino)-1-(N-(4-fluorobenzyl)formamido)-2-oxoethyl)-1H-indole-2-carboxylate]: the Ki on Mdm2 [1] (setting [6]) turned out to be 30 µM.
On Mdm2 [1], `CC(C)(C)NC(=O)C(c1c(C(=O)O)[nH]c2cc(Cl)ccc12)N(C=O)Cc1ccccc1F` (stereo not shown) [Compound 7D, 3-(2-(tert-butylamino)-1-(N-(2-fluorobenzyl)formamido)-2-oxoethyl)-6-chloro-1H-indole-2-carboxylic acid] yielded a Ki of 1.7 µM.
In turn, `CCOC(=O)c1[nH]c2cc(Cl)ccc2c1C(NC(CC(C)C)C(=O)OC)C(=O)NCc1ccccc1` (stereo in doubt) [KK229, Ethyl 3-(2-(benzylamino)-1-(((R)-1-methoxy-4-methyl-1-oxopentan-2-yl)amino)-2-oxoethyl)-6-chloro-1H-indole-2-carboxylate] came in with a Ki at Mdm2 [2] of 1.7 µM.
With `CC(C)(C)NC(=O)C(c1c(C(=O)O)[nH]c2cc(Cl)ccc12)N(C=O)Cc1cc(F)ccc1F` (stereo not shown) [Compound 7H, 3-(2-(tert-butylamino)-1-(N-(2,5-difluorobenzyl)formamido)-2-oxoethyl)-6-chloro-1H-indole-2-carboxylic acid], the affinity at Mdm2 [1] corresponds to a Ki of 2.5 µM.
As to `CC(C)(C)NC(=O)C(c1c(C(=O)O)[nH]c2cc(Cl)ccc12)N(C=O)Cc1cc(F)c(F)c(F)c1` (stereo not shown) [Compound 7M, 3-(2-(tert-butylamino)-2-oxo-1-(N-(3,4,5-trifluorobenzyl)formamido)ethyl)-6-chloro-1H-indole-2-carboxylic acid], the concentration in solution in data set [3] (aqueous medium) (solubility) came to 850 µg/mL (≈ 1710 µM).
As for `CCOC(=O)c1[nH]c2cc(Cl)ccc2c1C(C(=O)NC1CCCCC1)N(Cc1ccc(Cl)c(Cl)c1)C(C)=O` (stereo not shown) [Compound 8g, Ethyl 6-chloro-3-(2-(cyclohexylamino)-1-(N-(3,4-dichlorobenzyl)acetamido)-2-oxoethyl)-1H-indole-2-carboxylate], at Mdm2 [1] (setting [6]), the Ki came to 9 µM.
Compound `CCOC(=O)c1[nH]c2cc(Cl)ccc2c1C(NC(CC(C)C)C(=O)O)C(=O)NCc1ccccc1` (stereo not shown) [KK272, 2-((2-(benzylamino)-1-(6-chloro-2-(ethoxycarbonyl)-1H-indol-3-yl)-2-oxoethyl)amino)-4-methylpentanoic acid] came in with a Ki at Mdm2 [1] (setting [4]) of 1.4 µM.
Still for that read-out and setting: the same measure for `CCOC(=O)c1[nH]c2cc(Cl)ccc2c1C(NC(CC(C)C)C(=O)NCCO)C(=O)NCc1ccccc1` (stereo in doubt) [KK259, Ethyl 3-(2-(benzylamino)-1-(((S)-1-((2-hydroxyethyl)amino)-4-methyl-1-oxopentan-2-yl)amino)-2-oxoethyl)-6-chloro-1H-indole-2-carboxylate]: 9 µM.
